Data reported in patent US20070128217A1 (priority 2003, published 2007).

How the values were obtained:
[1] = tested on: control sera (pooled serum of ten healthy LUMC hospital workers; commercial negative donor pooled serum from the Dutch bloodbank); format: binding, human; set-up: Binding of Control serum LUMC to linear peptides / Binding of Control serum Blood-bank to linear peptides / Binding of Control serum LUMC to looped peptides / Binding of Control Serum Blood-Bank to Looped peptides / Binding of Control serum LUMC to linear peptides of the protein M of SARS-CoV Urbani / Binding of Control serum Blood-bank to linear peptides of the protein M of SARS-CoV Urbani / Binding of Control serum LUMC to looped peptides of the protein M of SARS-CoV Urbani / Binding of Control Serum Blood-Bank to Looped peptides of the protein M of SARS-CoV Urbani: unit not given here
[2] = tested on: antibodies in sera from SARS patients (sera 1a, 1b, 2, 6, 37, 62, London, SARS-yellow, SARS-green); format: binding, human; set-up: Binding of serum 6 to linear peptides of protein X1 of SARS-CoV Urbani / Binding of serum 37 to linear peptides of protein X1 of SARS-CoV Urbani / Binding of serum 6 to looped/cyclic peptide (PEPSCAN-ELISA) / Binding of serum 37 to looped/cyclic peptide (PEPSCAN-ELISA) / Binding of serum 37 to looped/cyclic peptides of protein X1 of SARS-CoV Urbani / Binding of serum 6 to linear peptides of protein X2 / Binding of serum 37 to linear peptides of protein X2 / Binding of serum 37 to looped/cyclic peptides of protein X2 of SARS-CoV Urbani / Binding of serum 6 to linear peptides of protein M of SARS-CoV Urbani / Binding of serum 37 to linear peptides of protein M of SARS-CoV Urbani / Binding of serum 6 to looped/cyclic peptides of protein M of SARS-CoV Urbani / Binding of serum 37 to looped/cyclic peptides of protein M of SARS-CoV Urbani / Binding of serum 6 to linear peptides of protein X3 of SARS-CoV Urbani / Binding of serum 37 to linear peptides of protein X3 of SARS-CoV Urbani / Binding of serum 37 to looped/cyclic peptides of protein X3 of SARS-CoV Urbani / Binding of serum 6 to linear peptides of protein X4 of SARS-CoV Urbani / Binding of serum 37 to linear peptides of protein X4 of SARS-CoV Urbani / Binding of serum 37 to looped/cyclic peptides of protein X4 of SARS-CoV Urbani / Binding of serum 6 to linear peptides of protein X5 of SARS-CoV Urbani / Binding of serum 37 to linear peptides of protein X5 of SARS-CoV Urbani / Binding of serum 37 to looped/cyclic peptides of protein X5 of SARS-CoV Urbani / Binding of serum 6 to linear peptides of protein N of SARS-CoV Urbani / Binding of serum 37 to linear peptides of protein N of SARS-CoV Urbani / Binding of serum 6 to linear peptide (PEPSCAN-ELISA) / Binding of serum 1a to looped/cyclic peptides of protein N of SARS-CoV Urbani / Binding of serum 1b to looped/cyclic peptides of protein N of SARS-CoV Urbani / Binding of serum 2 to looped/cyclic peptides of protein N of SARS-CoV Urbani / Binding of serum 6 to looped/cyclic peptides of protein N of SARS-CoV Urbani / Binding of serum 37 to looped/cyclic peptides of protein N of SARS-CoV Urbani / Binding of serum 62 to looped/cyclic peptides of protein N of SARS-CoV Urbani / Binding of serum London to looped/cyclic peptides of protein N of SARS-CoV Urbani / Binding of serum SARS-green to looped/cyclic peptides of protein N of SARS-CoV Urbani: unit not given here
[3] = tested on: rabbit serum obtained by immunizing a rabbit with the SARS-CoV strain Frankfurt 1; format: binding; set-up: Binding of a rabbit serum to linear peptides / Binding of a rabbit serum to looped peptides / Rabbit serum linear peptides / Rabbit serum looped peptides / Binding of a rabbit serum to linear peptides of protein N of SARS-CoV Urbani (Rabbit serum linear peptides) / Binding of a rabbit serum to looped/cyclic peptides of protein N of SARS-CoV Urbani (Rabbit serum looped peptides): unit not given here

Q: Which results are given for LIARCWYLHEGHQTA?
A: Binding of Control Serum Blood-Bank to Looped peptides [1]: 0.3; Binding of Control serum Blood-bank to linear peptides [1]: 0.6; Binding of Control serum LUMC to linear peptides [1]: 0.4; Binding of Control serum LUMC to looped peptides [1]: 0.0; Binding of serum 1a to linear peptides of protein X5 of SARS-CoV Urbani [2]: 0.7; Binding of serum 1a to looped/cyclic peptides of protein X5 of SARS-CoV Urbani [2]: 0.4; Binding of serum 1b to linear peptides of protein X5 of SARS-CoV Urbani [2]: 0.6; Binding of serum 1b to looped/cyclic peptides of protein X5 of SARS-CoV Urbani [2]: 0.4; Binding of serum 2 to linear peptides of protein X5 of SARS-CoV Urbani [2]: 0.6; Binding of serum 2 to looped/cyclic peptides of protein X5 of SARS-CoV Urbani [2]: 0.2; Binding of serum 6 to linear peptides of protein X5 of SARS-CoV Urbani [2]: 0.1; Binding of serum 6 to looped/cyclic peptides of protein X5 of SARS-CoV Urbani [2]: 0.1; Binding of serum 37 to linear peptides of protein X5 of SARS-CoV Urbani [2]: 0.8; Binding of serum 37 to looped/cyclic peptides of protein X5 of SARS-CoV Urbani [2]: 0.3; Binding of serum 62 to linear peptides of protein X5 of SARS-CoV Urbani [2]: 0.9; Binding of serum 62 to looped/cyclic peptides of protein X5 of SARS-CoV Urbani [2]: 0.1; Binding of serum London to linear peptides of protein X5 of SARS-CoV Urbani [2]: 0.6; Binding of serum London to looped/cyclic peptides of protein X5 of SARS-CoV Urbani [2]: 0.0; Binding of serum SARS-green to linear peptides of protein X5 of SARS-CoV Urbani [2]: 0.6; Binding of serum SARS-green to looped/cyclic peptides of protein X5 of SARS-CoV Urbani [2]: 0.6; Binding of serum SARS-yellow to linear peptides of protein X5 of SARS-CoV Urbani [2]: 0.0; Binding of serum SARS-yellow to looped/cyclic peptides of protein X5 of SARS-CoV Urbani [2]: 0.0; Rabbit serum linear peptides [3]: 0.8; Rabbit serum looped peptides [3]: 0.0

Q: With SLLKVTAFQHQNSKK as the sequence, how does the “Binding of Control Serum Blood-Bank to Looped peptides” value [1] read?
A: Its value is 0.4.

Q: And the “Binding of Control serum Blood-bank to linear peptides” value [1]?
A: Its value is 0.2.

Q: What about the “Binding of Control serum LUMC to linear peptides” value [1] of the same sequence?
A: Its value is 0.0.

Q: What about the “Binding of Control serum LUMC to looped peptides” value [1] of the same sequence?
A: The value was 0.3.

Q: And the “Binding of serum 1a to linear peptides of protein X2” value [2]?
A: Its value is 0.4.

Q: And the “Binding of serum 1a to looped/cyclic peptides of protein X2 of SARS-CoV Urbani” value [2]?
A: The value was 0.3.

Q: What about the “Binding of serum 1b to linear peptides of protein X2” value [2] of the same sequence?
A: The value was 0.0.

Q: What about the “Binding of serum 1b to looped/cyclic peptides of protein X2 of SARS-CoV Urbani” value [2] of the same sequence?
A: The value was 0.2.

Q: And the “Binding of serum 2 to linear peptides of protein X2” value [2]?
A: Its value is 0.1.

Q: And the “Binding of serum 2 to looped/cyclic peptides of protein X2 of SARS-CoV Urbani” value [2]?
A: Its value is 0.1.

Q: And the “Binding of serum 6 to linear peptides of protein X2” value [2]?
A: Its value is 0.0.

Q: What about the “Binding of serum 6 to looped/cyclic peptides of protein X2 of SARS-CoV Urbani” value [2] of the same sequence?
A: The value was 0.1.

Q: And the “Binding of serum 37 to linear peptides of protein X2” value [2]?
A: Its value is 0.4.

Q: And the “Binding of serum 37 to looped/cyclic peptides of protein X2 of SARS-CoV Urbani” value [2]?
A: The value was 0.2.

Q: What about the “Binding of serum 62 to linear peptides of protein X2” value [2] of the same sequence?
A: The value was 0.1.

Q: What about the “Binding of serum 62 to looped/cyclic peptides of protein X2 of SARS-CoV Urbani” value [2] of the same sequence?
A: The value was 0.4.

Q: And the “Binding of serum London to linear peptides of protein X2” value [2]?
A: The value was 0.1.

Q: What about the “Binding of serum London to looped/cyclic peptides of protein X2 of SARS-CoV Urbani” value [2] of the same sequence?
A: The value was 0.1.

Q: And the “Binding of serum SARS-green to linear peptides of protein X2” value [2]?
A: Its value is 0.0.

Q: And the “Binding of serum SARS-green to looped/cyclic peptides of protein X2 of SARS-CoV Urbani” value [2]?
A: Its value is 0.1.

Q: And the “Binding of serum SARS-yellow to linear peptides of protein X2” value [2]?
A: The value was 0.0.

Q: What about the “Binding of serum SARS-yellow to looped/cyclic peptides of protein X2 of SARS-CoV Urbani” value [2] of the same sequence?
A: The value was 0.2.

Q: What about the “Binding of a rabbit serum to linear peptides” value [3] of the same sequence?
A: Its value is 0.1.

Q: What about the “Binding of a rabbit serum to looped peptides” value [3] of the same sequence?
A: The value was 0.3.

Q: For CINACRIIMRCWLCW, which “Binding of Control Serum Blood-Bank to Looped peptides” value [1] is on record?
A: The value was 0.8.

Q: What about the “Binding of Control serum Blood-bank to linear peptides” value [1] of the same sequence?
A: Its value is 0.7.

Q: What about the “Binding of Control serum LUMC to linear peptides” value [1] of the same sequence?
A: Its value is 0.8.

Q: What about the “Binding of Control serum LUMC to looped peptides” value [1] of the same sequence?
A: The value was 0.7.

Q: And the “Binding of serum 1a to linear peptides of protein X1 of SARS-CoV Urbani” value [2]?
A: Its value is 0.8.

Q: And the “Binding of serum 1a to looped/cyclic peptide (PEPSCAN-ELISA)” value [2]?
A: Its value is 0.7.

Q: What about the “Binding of serum 1b to linear peptides of protein X1 of SARS-CoV Urbani” value [2] of the same sequence?
A: Its value is 0.5.

Q: What about the “Binding of serum 1b to looped/cyclic peptide (PEPSCAN-ELISA)” value [2] of the same sequence?
A: The value was 0.4.

Q: What about the “Binding of serum 2 to linear peptides of protein X1 of SARS-CoV Urbani” value [2] of the same sequence?
A: Its value is 0.5.

Q: What about the “Binding of serum 2 to looped/cyclic peptide (PEPSCAN-ELISA)” value [2] of the same sequence?
A: The value was 0.6.

Q: And the “Binding of serum 6 to linear peptides of protein X1 of SARS-CoV Urbani” value [2]?
A: Its value is 0.7.

Q: And the “Binding of serum 6 to looped/cyclic peptide (PEPSCAN-ELISA)” value [2]?
A: Its value is 0.7.

Q: And the “Binding of serum 37 to linear peptides of protein X1 of SARS-CoV Urbani” value [2]?
A: Its value is 0.6.

Q: What about the “Binding of serum 37 to looped/cyclic peptide (PEPSCAN-ELISA)” value [2] of the same sequence?
A: The value was 0.6.

Q: What about the “Binding of serum 62 to linear peptides of protein X1 of SARS-CoV Urbani” value [2] of the same sequence?
A: Its value is 0.7.

Q: And the “Binding of serum 62 to looped/cyclic peptide (PEPSCAN-ELISA)” value [2]?
A: The value was 0.7.

Q: And the “Binding of serum London to linear peptides of protein X1 of SARS-CoV Urbani” value [2]?
A: The value was 0.4.

Q: What about the “Binding of serum London to looped/cyclic peptide (PEPSCAN-ELISA)” value [2] of the same sequence?
A: The value was 0.8.

Q: What about the “Binding of serum SARS-green to linear peptides of protein X1 of SARS-CoV Urbani” value [2] of the same sequence?
A: Its value is 0.2.

Q: And the “Binding of serum SARS-green to looped/cyclic peptide (PEPSCAN-ELISA)” value [2]?
A: The value was 0.3.

Q: And the “Binding of serum SARS-yellow to linear peptides of protein X1 of SARS-CoV Urbani” value [2]?
A: Its value is 0.4.

Q: What about the “Binding of serum SARS-yellow to looped/cyclic peptide (PEPSCAN-ELISA)” value [2] of the same sequence?
A: The value was 0.5.

Q: And the “Recognition of the peptide by the rabbit serum” value [3]?
A: The value was “recognized”.
